Test results published in patent publication US11180767B2, “Protease deficient filamentous fungal cells and methods of use thereof” (GLYKOS FINLAND OY, priority 2012, dated 2021).

Columns and labels:
serine proteases = assay: IgG degradation by aminobenzamidine purified serine protease fraction F4 with and without PMSF; assay type: biochemical, Trichoderma reesei; details: PMSF 5 mM; pH 5.5, 37°C, 20 hours
Experimental: Serine proteases comprise a major family of proteases that have been identified as antibody degrading enzymes. Accordingly, serine proteases were purified from Trichoderma supernatant. The serine proteases were first affinity purified from fermentation culture supernatants with a p-aminobenzamidine sepharose 4 fast flow resin (GE healthcare #17-5123-10). 15 ml of the fermentation culture supernatant was batch bound to the resin in 35 ml of binding buffer (0.05 M Tris-HCL, 0.5 M NaCl, pH 7.4). After packing and washing the column with the same binding buffer, the column was eluted with 0.05 M glycine, pH 3.0. The fractions were then neutralized with 1M Tris HCL, pH 8.8.
In total 1.7 mg of protein was purified from the affinity column. When the peak fractions were run on a 4-15% SDS-PAGE gel, several major bands (˜110 kD, 53 kD, 39 kD, 29 kD) and many more minor bands were seen. The peak fraction protein mixture (F4) was then tested for protease activity by incubated a sample of the F4 with human IgG1 in sodium citrate buffer (50 mM, pH 5.5) at 37° C. for 20 hours. The samples were incubated both in the presence and absence of the serine protease inhibitor PMSF (5 mM). The incubated samples were then analyzed by immunoblotting with an anti-IgG heavy chain AP conjugate antibody (Sigma #A3188) and an anti-IgG light chain AP conjugate antibody (Sigma #A3812) diluted 1:30,000 in TBST.

[1] = test system: rituximab antibody producing strain; assay: Treatment of T. reesei rituximab cultures with inhibitors; assay type: cell-based, Trichoderma reesei
Experimental: The effectiveness of the inhibitors was also tested with the rituximab antibody producing strain, which contains a VALEKR linker sequence and the pep1 deletion. This strain was grown in triplicate, in small flasks both in presence or absence of chymostatin, SBTI, or pepstatin A. The small shake flasks contained 50 ml of TrMM plus lactose (40 g/l), spent grain extract (20 g/l), and buffer with 100 mM PIPPS at pH 5.5. The SBTI inhibitor was added to the culture at final concentrations of either 100 μg/ml or 500 μg/ml. Chymostatin was used at 100 μM, and pepstatin A was used at 10 μM. Each of the three inhibitors was added to the cultures daily on day 2, 3, 4, and 5.
Growth of the cultures was followed daily by pH from day 2 until day 7. […] In the PIPPS buffered cultures, the pH decreased from an initial pH of 5.5 down to a pH of 4.8 after day 6. With chymostatin and pepstatin A the cultures were monitored up to day 7. On day 7 the average pH for the control bottles was 4.6, while the average pH for chymostatin treated cultures was 4.9, and the average pH of pepstatin A treated cultures was 5.0.
Culture supernatant samples (30 μl) were also collected on days 3, 4, and 5 for analysis of antibody production. The analysis was performed by immunoblots using an anti-IgG heavy chain antibody AP conjugate (Sigma #A3188) and an anti-light chain antibody AP conjugate (Sigma #A3812). Each antibody was diluted 1:30,000 in TBST. The full length rituximab heavy chain is about 51 kD, the rituximab light chain CHBI fusion is about 100 kD, and the free rituximab light chain is about 28 kD.

[2] = test system: M369 human growth hormone strain; assay: hGH production in 24 well cultures with inhibitors and supplements; assay type: cell-based, Trichoderma reesei; details: 24 well culture, pH 4.5, day 4 immunoblot
Experimental: To evaluate what inhibitors would best stabilize production of hGH, 24 well cultures of these strains were performed. The M369 human growth hormone strain (Δpep1Δtsp1Δslp1Δgap1Δgap2) was grown along with single components or with combinations of the following: trypsin and subtilisin inhibitor SBTI, the acidic protease inhibitor peptide SIP, the acidic protease inhibitor peptide LIP, the aspartic protease inhibitor pepstatin A free peptide, pepstatin A immobilized to agarose beads, the trypsin and subtilisin inhibitor BBI from lima bean, the […] chymostatin, and BSA. Three independent wells were chosen for control wells where no inhibitors or supplements were added. These two strains were grown in 3 ml of TrMM with diammonium citrate without ammonium sulfate, 100 mM PIPPS, 20 g/L spent grain extract, 40 g/L lactose adjusted to pH 4.5. The 24 well plates were shaken at 800 rpm, 85% humidity, and 28° C. The cultures were grown for 6 days and covered with an air permeable membrane.
Inhibitors were added first on day 1 and then daily beginning on day 3. 100 μl samples were taken from the culture wells beginning on day 3. The mycelium was spun down for 5 minutes at 13 k and the supernatant collected. From the culture supernatant 12 μl was loaded in a 4-20% SDS PAGE gel and immunoblotting made on nitrocellulose with mouse anti-hGH antibody (2 μg/ml) and goat anti-mouse IgG AP conjugated secondary antibody diluted 1:10,000 in TBST.
Estimating the expression levels relative to the 200 ng control sample, the control wells produced between 3-6 mg/L of hGH, the BSA (0.25%)/SIP (50 μM)/8BTI (0.2 mg/ml) treatment produced 24.5 mg/L, the SIP (50 μM)/8BTI (0.2 mg/ml) treatment produced 26.6 mg/L, and the pepstatin A beads/SBTI (0.2 mg/ml) addition yielded 24.5 mg/L of hGH. Therefore, using a combination of inhibitors and additives worked best increasing the production levels by at least 4-fold. The critical parameter was to include an aspartic protease inhibitor into the mix.

[3] = test system: SIP purified proteases (PEP2, PEP3, PEP4, PEP5, GAP1, SLP2); assay: Protease activity of SIP purified fractions against casein with inhibitors (EnzChek); assay type: biochemical, Trichoderma reesei; details: pH 5.5; for proteases inhibited: SIP, LIP, pepstatin A 60 μM, SBTI 200 μg/ml
Experimental: Protease activity was then tested against casein both in the presence and absence of protease inhibitors. Protease activity against casein was tested using the EnzChek protease assay kit (Molecular probes #E6638, green fluorescent casein substrate). The working stock solution was prepared by diluting the stock to 10 μg ml in 50 mM sodium citrate, pH 5.5. The purified protease fractions (10 μl) were diluted with […] of sodium citrate, pH 5.5. 100 μl of the diluted substrate was combined with the diluted protease fractions in a 96 well sample plate. The plate was then covered and kept at 37° C. for one to three hours. Fluorescence readings were taken at one, two, and three hours with a Varioskan fluorescent plate reader (Thermo Scientific) using 485 nm excitation and 530 nm emission.
The SIP inhibitor peptide, pepstatin A, LIP peptide, SBTI, and chymostatin were used as inhibitors. […] SIP, LIP, and pepstatin A were used at a concentration of 60 μM, and SBTI was used at a concentration of 200 μg/ml.

[4] = test system: tryptic and chymotryptic proteases; assay: In vitro inhibitor treatment: rituximab heavy chain degradation in M44 supernatant; assay type: biochemical, Trichoderma reesei; details: 100 μM chymostatin or 1 mg/ml SBTI; M44 supernatant 6 mg/ml, pH 5.5
Experimental: Based on the knowledge that the heavy chain is cleaved by tryptic and chymotryptic proteases, inhibitors of these two enzyme classes were tested against antibody degradation both in vitro and in culture experiments utilizing an antibody producing T. reesei strain. The inhibitors soybean trypsin inhibitor (SBTI) and chymostatin were tested, as they have been previously shown in in vitro experiments to stabilize antibody heavy chains.
Chymostatin and SBTI were analyzed in vitro with culture supernatant. Supernatant from a fed batch fermentor culture was diluted to 6 mg/ml with sodium citrate buffer pH 5.5 (pH 5.5; 28° C.; 20 g/L spent grain extract, 60 g/L lactose). […] The strain was grown in Trichoderma minimal medium supplemented with 20 g/l spent grain extract and 60 g/l lactose at pH 5.5 and 28° C.
To this diluted supernatant 0.05 μg μl of rituximab, 100 μM chymostatin, 1 mg/ml SBTI, or a combination of both inhibitors was added in a total volume of 50 μl and sampled at 0, 1, and 19 hours to assess the early and late degradation of the rituximab antibody heavy chain. The resulting heavy chain products were analyzed by immunoblot using and anti-heavy chain AP conjugated antibody (Sigma #A3188) diluted 1:30,000 in TBST (FIG. 35). […] Additional fragments were generated after 19 hours, the two major products remained.

[5] = test system: aspartic and glutamic protease; assay: MAB01 heavy chain degradation by SIP purified proteases with and without SIP inhibitor peptide; assay type: biochemical, Trichoderma reesei; details: overnight 37°C, pH 4.0 and pH 5.5
Experimental: Several additional aspartic proteases were isolated from the T. reesei M277 triple protease deletion strain (pep1, tsp1, slp1). […] The M277 deletion strain was generated as described in Example 4 below. The strain was grown in Trichoderma minimal medium supplemented with 20 g/l spent grain extract, 60 g/l lactose, and 9 g/l casamino acids at pH 5.5 and 28° C. The aspartic proteases were isolated by affinity purification using the SIP peptide (Ac-Phe-Lys-Phe-(AHPPA)-Leu-Arg-NH2) (Kataoka Y. et al. 2005 FEBS Letters 579, pp 2991-2994). The SIP peptide was conjugated to NHS activated agarose resin (Pierce #26196) using the protocol provided by the manufacturer. The SIP affinity resin was used to purify proteases. Fermentation supernatant (15 ml) from the T. reesei M277 strain was then used to batch bind proteases to the resin in 35 ml buffer containing 50 mM sodium acetate, 0.2 M NaCl, pH 3.0 (from fermentation conditions pH 5.5; 28° C.; 9 g/l casaminoacids; 20 g/L spent grain extract, 60 g/L lactose). The column was washed with the same binding buffer and bound protein removed with elution buffer (50 mM Tris-HCL, 1 M NaCl, pH 8.5). […]
The SIP purified proteases were then tested for their ability to degrade the MAB01 antibody heavy chain. […] The collected samples were analyzed by immunoblotting with an anti-IgG heavy chain antibody AP conjugate (Sigma A3188) diluted 1:30,000 in TBST. […]

[6] = test system: proteases in supernatant from the 6-fold protease deletion strain M400; assay: Protease stability of proteins spiked into supernatant of the 6-fold protease deletion strain; assay type: biochemical, Trichoderma reesei; details: M400 supernatant pH 4.2, 20 hours, 37°C, 0.05 μg/μl
Experimental: The protease stability of the model proteins IGF1, hGH, and IFNα2b were analyzed by spiking them into supernatant from the 6-fold protease deletion strain (Δpep1Δtsp1Δslp1Δgap1Δgap2Δpep4) M400. The supernatant was collected from a large shake flask culture CAH15. The undiluted supernatant from the shake flask cultivation CAH15 was incubated with the purified model proteins with and without pepstatin A (50 μM) and SBTI (0.2 mg/ml) inhibitors for 20 hours at 37° C. The 5 day culture supernatant pH was around 4.2. The reaction containing 0.05 μg μl of model protein was sampled after 20 hours. 50 mM sodium citrate pH 4.0 spiked with model proteins (0.05 g 1) was used as a buffer control.
From each reaction 10 μl was loaded into an 18% SDS PAGE gel and run for 30 minutes at 200 V. The proteins in the gel were then transferred to nitrocellulose for immunoblotting. The nitrocellulose membrane was blocked for 1 hour at room temperature with 5% milk in TBST buffer. The individual blots were probed with their specific primary antibody to detect the appropriate model protein for 1 hour at room temperature on a shaker. The mouse anti-IGF1 antibody (R&D systems #mab291) was used at 2 μg/ml diluted in TBST. The mouse anti-rhGH antibody (Abeam #ab51232) was used at 2 μg/ml diluted in TBST. The mouse anti-IFNα2b antibody (Abeam #ab9386) was used at 1 μg/ml diluted in TBST. After briefly washing the blot membranes with TBST, the secondary antibody was added for 1 hour at room temperature shaking. The secondary goat anti-mouse AP conjugated antibody (Biorad #170-6520) was diluted 1:10,000 in TBST.
This same spiking experiment as was done with MAB01 to investigate its stability in the 6 protease deletion supernatant with and without inhibitors (FIG. 43). Samples were taken as described above and immunoblotted with an anti-heavy chain AP conjugated antibody (Sigma #A3188). […] There was no obvious benefit having used inhibitors. The antibody was stable in this pH 4.2 supernatant. […]

[7] = third chymostatin culture sample, 100 μM

## O=S(=O)(F)Cc1ccccc1 [PMSF]
Serine proteases
  IgG degradation by F4 serine protease fraction: able to inhibit most of the degradation

## CC(C)C[C@H](NC(=O)[C@@H](NC(=O)N[C@@H](Cc1ccccc1)C(=O)O)[C@@H]1CCN=C(N)N1)C(=O)N[C@H](C=O)Cc1ccccc1 [chymostatin]
[1]; day 5, SBTI 100 or 500 μg/ml, chymostatin 100 μM
  rituximab heavy chain production vs untreated cultures: increased the amount of full length rituximab heavy chain produced
[1]; small shake flasks, inhibitors added daily day 2-5
  effect on culture growth (followed by pH): small reduction in growth
[1]; [7]
  full length rituximab heavy chain: approximately 90%
  heavy chain fragment: ~10%
[2]
  effect on hGH production: improved the amount of full length product observed
[3]
  proteases inhibited: inhibited SLP2
[3]; FIG. 11
  inhibition of SIP purified protease activity against casein: able to inhibit the SLP2 protease
[4]
  rituximab heavy chain fragment formation: inhibited the initial production of the 42 kDa fragment

## Ac-Phe-Lys-Phe-(AHPPA)-Leu-Arg-NH2 (FKFXLR; HELM PEPTIDE1{[ac].F.K.F.[O=C(C[C@H](O)[C@H](Cc1ccccc1)N[*:1])[*:2]].L.R.[am]}$$$$V2.0; SMILES CC(=O)N[C@@H](Cc1ccccc1)C(=O)N[C@@H](CCCCN)C(=O)N[C@@H](Cc1ccccc1)C(=O)N[C@@H](Cc1ccccc1)[C@@H](O)CC(=O)N[C@@H](CC(C)C)C(=O)N[C@@H](CCCNC(=N)N)C(N)=O) [SIP peptide]
[5]
  aspartic and glutamic protease activities against MAB01 heavy chain: inhibited
[2]
  effect on hGH production: noticeable increase in hGH amount
[3]
  proteases inhibited: inhibited both aspartic and glutamic proteases

## IGF1: insulin-like growth factor 1, model protein
[6]
  stability of model protein in supernatant without inhibitors: the majority appeared to be degraded

## hGH: human growth hormone, model protein
[6]
  stability of model protein in supernatant without inhibitors: the majority appeared to be degraded
